Assay results published in US11629201B2, “PSMA-binding agents and uses thereof” (ITM Isotope Technologies Munich SE, priority 2017, dated 2023).

Test system: PC-3 PIP/flu tumor-bearing mice
Experiment: Biodistribution studies in PC-3 PIP/flu tumor-bearing mice
Conditions: for Tumor-to-blood / Tumor-to-kidney / Tumor-to-liver: PC-3 PIP tumor

**Q.** What does the source list for O=C(O)CCC(NC(=O)NC(CCCCNC(=O)C(Cc1ccc2ccccc2c1)NC(=O)C1CCC(CNC(=O)C(CCCCNC(=O)CCCc2ccc(I)cc2)NC(=O)CN2CCN(CC(=O)O)CCN(CC(=O)O)CCN(CC(=O)O)CC2)CC1)C(=O)O)C(=O)O (stereo not shown) [^177Lu-PSMA-ALB-03, metal not drawn]?
**A.** Tumor-to-blood (1 h p.i.): 0.31 ± 0.04; Tumor-to-kidney (1 h p.i.): 0.48 ± 0.07; Tumor-to-liver (1 h p.i.): 1.64 ± 0.61; Blood (4 h p.i.): 24.3 ± 3.60 % IA/g; Bone (4 h p.i.): 2.47 ± 0.39 % IA/g; Heart (4 h p.i.): 8.54 ± 1.18 % IA/g; Intestines (4 h p.i.): 3.71 ± 1.09 % IA/g; Kidneys (4 h p.i.): 24.5 ± 4.38 % IA/g; Liver (4 h p.i.): 4.56 ± 1.18 % IA/g; Lung (4 h p.i.): 14.21 ± 3.49 % IA/g; Muscle (4 h p.i.): 2.04 ± 0.37 % IA/g; PC-3 PIP Tumor (4 h p.i.): 19.9 ± 0.79 % IA/g; PC-3 flu Tumor (4 h p.i.): 5.32 ± 1.06 % IA/g; Salivary glands (4 h p.i.): 5.02 ± 1.17 % IA/g; Spleen (4 h p.i.): 4.76 ± 1.12 % IA/g; Stomach (4 h p.i.): 2.86 ± 1.03 % IA/g; Tumor-to-blood (4 h p.i.): 0.83 ± 0.10; Tumor-to-kidney (4 h p.i.): 0.83 ± 0.14; Tumor-to-liver (4 h p.i.): 4.60 ± 1.34; Blood (8 h p.i.): 23.5 ± 0.74 % IA/g; Bone (8 h p.i.): 2.71 ± 0.21 % IA/g; Heart (8 h p.i.): 8.12 ± 0.46 % IA/g; Intestines (8 h p.i.): 3.70 ± 0.40 % IA/g; Kidneys (8 h p.i.): 28.8 ± 1.49 % IA/g; Liver (8 h p.i.): 4.87 ± 0.42 % IA/g; Lung (8 h p.i.): 12.21 ± 1.32 % IA/g; Muscle (8 h p.i.): 2.01 ± 0.10 % IA/g; PC-3 PIP Tumor (8 h p.i.): 31.0 ± 5.79 % IA/g; PC-3 flu Tumor (8 h p.i.): 5.98 ± 0.91 % IA/g; Salivary glands (8 h p.i.): 5.49 ± 0.59 % IA/g; Spleen (8 h p.i.): 4.10 ± 0.14 % IA/g; Stomach (8 h p.i.): 2.92 ± 0.17 % IA/g; Tumor-to-blood (8 h p.i.): 1.32 ± 0.29; Tumor-to-kidney (8 h p.i.): 1.07 ± 0.18; Tumor-to-liver (8 h p.i.): 6.38 ± 1.28; Blood (24 h p.i.): 17.3 ± 1.38 % IA/g; Bone (24 h p.i.): 2.02 ± 0.31 % IA/g; Heart (24 h p.i.): 6.60 ± 1.01 % IA/g; Intestines (24 h p.i.): 2.19 ± 0.23 % IA/g; Kidneys (24 h p.i.): 24.7 ± 1.85 % IA/g; Liver (24 h p.i.): 3.35 ± 0.26 % IA/g; Lung (24 h p.i.): 9.86 ± 0.57 % IA/g; Muscle (24 h p.i.): 1.61 ± 0.18 % IA/g; PC-3 PIP Tumor (24 h p.i.): 53.8 ± 5.61 % IA/g; PC-3 flu Tumor (24 h p.i.): 5.47 ± 0.67 % IA/g; Salivary glands (24 h p.i.): 4.69 ± 0.33 % IA/g; Spleen (24 h p.i.): 3.75 ± 0.21 % IA/g; Stomach (24 h p.i.): 1.39 ± 0.27 % IA/g; Tumor-to-blood (24 h p.i.): 3.13 ± 0.35; Tumor-to-kidney (24 h p.i.): 2.17 ± 0.06; Tumor-to-liver (24 h p.i.): 16.1 ± 1.75; Blood (48 h p.i.): 12.5 ± 3.78 % IA/g; Bone (48 h p.i.): 1.63 ± 0.56 % IA/g; Heart (48 h p.i.): 4.40 ± 1.18 % IA/g; Intestines (48 h p.i.): 1.73 ± 0.50 % IA/g; Kidneys (48 h p.i.): 22.6 ± 2.69 % IA/g; Liver (48 h p.i.): 2.53 ± 0.77 % IA/g; Lung (48 h p.i.): 7.45 ± 2.06 % IA/g; Muscle (48 h p.i.): 1.32 ± 0.41 % IA/g; PC-3 PIP Tumor (48 h p.i.): 72.3 ± 24.7 % IA/g; PC-3 flu Tumor (48 h p.i.): 5.69 ± 3.65 % IA/g; Salivary glands (48 h p.i.): 3.45 ± 1.09 % IA/g; Spleen (48 h p.i.): 3.79 ± 0.89 % IA/g; Stomach (48 h p.i.): 1.49 ± 0.48 % IA/g; Tumor-to-blood (48 h p.i.): 5.94 ± 1.53; Tumor-to-kidney (48 h p.i.): 3.17 ± 0.84; Tumor-to-liver (48 h p.i.): 29.0 ± 5.26; Blood (96 h p.i.): 7.37 ± 0.64 % IA/g; Bone (96 h p.i.): 1.07 ± 0.27 % IA/g; Heart (96 h p.i.): 3.15 ± 0.28 % IA/g; Intestines (96 h p.i.): 1.21 ± 0.26 % IA/g; Kidneys (96 h p.i.): 16.1 ± 1.69 % IA/g; Liver (96 h p.i.): 1.78 ± 0.03 % IA/g; Lung (96 h p.i.): 5.56 ± 0.54 % IA/g; Muscle (96 h p.i.): 0.91 ± 0.15 % IA/g; PC-3 PIP Tumor (96 h p.i.): 75.7 ± 2.46 % IA/g; PC-3 flu Tumor (96 h p.i.): 3.52 ± 0.54 % IA/g; Salivary glands (96 h p.i.): 2.19 ± 0.1 % IA/g; Spleen (96 h p.i.): 3.23 ± 0.53 % IA/g; Stomach (96 h p.i.): 0.91 ± .010 % IA/g; Tumor-to-blood (96 h p.i.): 10.3 ± 0.57; Tumor-to-kidney (96 h p.i.): 4.7 ± 0.38; Tumor-to-liver (96 h p.i.): 42.6 ± 1.90; Blood (144 h p.i.): 6.02 ± 0.60 % IA/g; Bone (144 h p.i.): 1.14 ± 0.23 % IA/g; Heart (144 h p.i.): 2.55 ± 0.25 % IA/g; Intestines (144 h p.i.): 0.88 ± 0.18 % IA/g; Kidneys (144 h p.i.): 11.2 ± 3.82 % IA/g; Liver (144 h p.i.): 1.50 ± 0.14 % IA/g; Lung (144 h p.i.): 4.99 ± 1.00 % IA/g; Muscle (144 h p.i.): 0.54 ± 0.07 % IA/g; PC-3 PIP Tumor (144 h p.i.): 68.9 ± 8.80 % IA/g; PC-3 flu Tumor (144 h p.i.): 2.77 ± 0.41 % IA/g; Salivary glands (144 h p.i.): 1.67 ± 0.27 % IA/g; Spleen (144 h p.i.): 2.94 ± 0.39 % IA/g; Stomach (144 h p.i.): 0.73 ± 0.10 % IA/g; Tumor-to-blood (144 h p.i.): 11.4 ± 0.47; Tumor-to-kidney (144 h p.i.): 6.44 ± 1.27; Tumor-to-liver (144 h p.i.): 46.0 ± 2.53; Blood (192 h p.i.): 5.29 ± 0.18 % IA/g; Bone (192 h p.i.): 0.83 ± 0.22 % IA/g; Heart (192 h p.i.): 2.08 ± 0.14 % IA/g; Intestines (192 h p.i.): 0.96 ± 0.03 % IA/g; Kidneys (192 h p.i.): 7.35 ± 0.92 % IA/g; Liver (192 h p.i.): 1.25 ± 0.20 % IA/g; Lung (192 h p.i.): 4.17 ± 0.68 % IA/g; Muscle (192 h p.i.): 0.62 ± 0.04 % IA/g; PC-3 PIP Tumor (192 h p.i.): 58.9 ± 12.4 % IA/g; PC-3 flu Tumor (192 h p.i.): 2.42 ± 0.23 % IA/g; Salivary glands (192 h p.i.): 1.55 ± 0.06 % IA/g; Spleen (192 h p.i.): 3.13 ± 0.90 % IA/g; Stomach (192 h p.i.): 0.78 ± 0.07 % IA/g; Tumor-to-blood (192 h p.i.): 11.1 ± 1.97; Tumor-to-kidney (192 h p.i.): 7.97 ± 0.70; Tumor-to-liver (192 h p.i.): 47.1 ± 2.44
